Measured values reported in patent US20190022198A1, “Individualized Immunomodulation Therapy for Neurodegenerative Disorders, CNS Injury and Age-Related Dementia” (Yeda Research and Development Co. Ltd., priority 2012, published 2019).
“Also recorded” adds a separate entry of the source.

Assays:
cultured CP cells = experiment: Immunocytochemistry of cultured CP cells treated with cytokines; type: cell-based, mouse
Experimental: For whole mount staining of the choroid plexus, isolated tissues were fixed with 2.5% paraformaldehyde (PFA) for several hours, and subsequently transferred to PBS containing 0.05% sodium azide. Prior to staining, the dissected tissues were washed and blocked (20% horse serum, 0.3% Triton X-100, and PBS) for 1 h at room temperature with shaking. Whole mount staining with primary (in PBS containing 2% horse serum and 0.3% Triton X-100) and secondary antibodies (in PBS), was performed for 1h at room temperature, with shaking. Each step was followed by three washes in PBS. The tissues were mounted onto slides, using Immu-mount (9990402, from Thermo), and sealed with cover-slips. For staining of sectioned brains, two different tissue preparation protocols (paraffin embedded and microtomed frozen sections) were applied, as previously described (Ziv Y et al (2006b)). For immunocytochemistry, CP cells were isolated as described above and were grown on PLL coated cover slips for 7 days, replacing the medium every 3 days. Cytokines were added for the last 3 days of culture. Following 7 days of culture, the wells were washed with PBS and the cells were fixed either with 2.5% paraformaldehyde for 30 min or methanol-acetone (1:1) for 10 min at −20° C., following by 2 washing steps with PBS. For CCL11 staining, cells were treated with Brefeldin-A 2 hours prior to fixation in order to arrest protein secretion. The cover slips of the cultured CP cells were incubated with the indicated antibodies and mounted with Glycerol Vinyl Alcohol (GVA) mounting solution (Invitrogen). The following primary antibodies were used: rat anti-CD3 (Abcam); rat anti-ICAM-1 (1:100; Abcam), chicken anti-vimentin (1:500, Millipore), rabbit anti-Iba1 (1:300; Wako), goat anti-IL-10 (1:20; R&D), mouse anti-MHC-II (Abcam); mouse anti-Arginase-1 (BD Biosciences); mouse anti-Cytokeratin (Covance); rat anti-CCL11 (R&D Systems); rabbit anti-ZO-1 (Invitrogen); and rabbit anti-Claudin-1 (Invitrogen). Secondary antibodies included: Cy2/Cy3-conjugated donkey anti-rat, mouse or rabbit antibody and Cy3 conjugated donkey anti-mouse, goat, rat, chicken or rabbit (1:200; all from Jackson Immuno Research). The slides were exposed to Hoechst stain (1:2000; Invitrogen) for 1 min. Two negative controls were routinely used in immunostaining procedures, staining with isotype control antibody followed by secondary antibody, and staining with secondary antibody alone. For morphological quantification, average cross-sectional area of epithelial cells was measured following Nissl staining. Cell borders (20-25 cells per picture) were marked and the area was quantified using Image-Pro Plus software in a blinded fashion.

CP epithelial cells = experiment: Primary culture of choroid plexus cells treated with cytokines, mRNA by real-time qPCR; type: cell-based, mouse; conditions: for gene expression levels of trafficking molecules (ICAM-1, VCAM-1, CCL5, CXCL9, CXCL10, MHC-II): cultured CP cells from WT mice, IL-6 10 ng/ml; for expression of trafficking-related genes, escalating dosing of the cytokines: escalating dosing (data not shown); for ccl11 mRNA levels (CCL11 expression): cultured CP epithelial cells from young (3 months) mice, 24 hours after addition
Experimental: Mice were perfused from the left ventricle of the heart with PBS, and their CPs were removed under a dissecting microscope (Stemi DV4; Zeiss) in PBS into tubes containing 0.25% trypsin, and kept on ice. The tubes were shaken for 20 minutes at 37° C. and the tissue was dissociated by pipetting. The cell suspension was washed in culture medium for epithelial cells (DMEM/HAM's F12 (Invitrogen Corp)) supplemented with 10% FCS (Sigma-Aldrich), 1 mM 1-glutamine, 1 mM sodium pyruvate, 100 U/ml penicillin, […] streptomycin, 5 μg/ml Insulin, 20 μM Ara-C, 5 ng/ml sodium selenite, 10 ng/ml EGF, and cultured (˜250,000 cells/well) at 37° C., 5% CO2 in 24-well plates (Corning Incorporated) coated with poly-L-lysine (PLL; Sigma-Aldrich). After 24 hours, the medium was changed, and the cells were either left untreated, or treated with the indicated cytokines (all purchased from PeproTech): IFN-γ, IL-4, IL-10, IL-17A, GM-CSF, IL-6, IL-1β or TNF-α or their combinations for 24 h. Cell viability was quantified by Trypan blue staining after detachment of the cells with 0.25% trypsin for 10 minutes at 37° C. Neutralizing antibodies to TNF-R1 or TNF-R2 ([…], BioLegend) were added 1 h prior to the addition of TNF-α (100 ng/ml). RNA was isolated using the ZR RNA microprep kit (Zymo Research) according to the manufacturer's protocol.
Total RNA of the hippocampus was extracted with TRI reagent (MRC, Cincinnati, Ohio) and was purified from the lysates and spinal cord using the RNeasy kit (Qiagen, Hilden, Germany). Total RNA of the choroid plexus was extracted using the RNA MicroPrep kit (Zymo Research). mRNA (1 μg) was converted to cDNA using High Capacity cDNA Reverse Transcription Kit (Applied Biosystems). The expression of specific mRNAs was assayed using fluorescence based real-time quantitative PCR (qPCR). qPCR reactions were performed using Power SYBR Green PCR Master Mix (Applied Biosystems). Quantification reactions were performed in triplicates for each sample using the standard curve method. Glyceraldehyde 3-phosphate dehydrogenase (GAPDH), Peptidylprolyl isomerase A (PPIA), and hypoxanthine guanine phosphoribosyltransferase (HPRT) were chosen as reference genes according to their stability in the target tissue. The amplification cycles were 95° C. for 5 sec, 60° C. for 20 sec, and 72° C. for 15 sec. At the end of the assay, a melting curve was constructed to evaluate the specificity of the reaction. For some genes, the cDNA was pre-amplified in 14 PCR cycles with non-random PCR primers, thus increasing the sensitivity of the subsequent real-time PCR analysis (PreAmp Master Mix Kit, Applied Biosystems). For these genes, expression was determined using TaqMan Real-Time PCR, according to manufacturer's instructions (Applied Biosystems). All quantitative real-time PCR reactions were performed and analyzed using the 7500 Real-Time PCR System (Applied Biosystems). The following TaqMan probes were used: Mm02342430_g1 (ppia), Mm00446968_m1 (hprt), Mm00445260_m1 (il-4), Mm01168134_m1 (ifn-γ), Mm00441238_m1 (ccl11), Mm00475988_m1 (arg-1). In addition, the following primers were used: […]

Foxp3-DTR mice = experiment: Foxp3+ Treg depletion by diphtheria toxin in DEREG (Foxp3-DTR) mice; type: in vivo, mouse
WT, mSOD and 5XFAD mice = experiment: Active immunization with MOG and monitoring Tregs and Th1 cells in the blood (Example 19); type: in vivo, mouse
Experimental: 200 μg of MOG35-55 (GL Biochem Ltd., Shanghai) are emulsified in 200 μl […] Freund's adjuvant (IFA) containing 0.5 mg/ml M. tuberculosis (strain H37Ra; BD Diagnostics), and 200 μl is injected subcutaneously to three groups of mice: WT, mSOD and 5XFAD. Control mice for each group are injected subcutaneously with PBS. At days 7, 14 and 28 post immunization, the mice are anesthetized, blood is collected into heparin containing tubes and […] of each sample are treated with ACK lysing buffer (Life Technologies) to remove erythrocytes. For intracellular staining of IFN-γ (corresponding to Th1 cells) the cells are incubated with PMA (10 ng/ml; Sigma-Aldrich) and ionomycin (250 ng/ml; Sigma-Aldrich) for 6 h, and Brefeldin-A ([…]; Sigma-Aldrich) was added for the last 4 h. Intracellular labeling is done with BD Cytofix/Cytoperm Plus Fixation/Permeabilization kit (cat. no. 555028) according to the manufacturer's protocol. For intracellular staining of Foxp3^+ T regulatory cells (Tregs), the cells are stained according to manufacturer's protocol (Mouse Regulatory T Cell Staining Kit, eBioscience, cat. No. 88-8111-40). […] Flow cytometry analysis is performed on each sample using a BD Biosciences LSRII flow cytometer, and the acquired data is analyzed using FlowJo software (Tree star). The ratio between Tregs and Th1 cells is calculated for each sample.

WT mice = type: in vivo, mouse
mSOD1 mice = experiment: MOG immunization of mSOD1 mice: EAE symptoms, CP trafficking molecules, leukocytes in CSF and spinal cord, survival; type: in vivo, mouse
[1] = 24 hours, IFN-γ 100 ng/ml, IL-4 10 ng/ml, IL-17 100 ng/ml

IL-4: Th2-derived cytokine, purchased from PeproTech, added to cultured CP cells
epithelial tight junctions (ZO-1 staining) (cultured CP cells; CP epithelial cell cultures in response to IL-4 (data not shown)): dysregulated | CCL11 immunoreactivity (cultured CP cells; CP epithelium, IL-4, following Brefeldin-A treatment (data not shown)): produced CCL11 | Arg1 immunostaining (cultured CP cells; IL-4 (10 ng/ml) treated CP epithelial cells): higher relative to untreated cells | gene expression levels of trafficking molecules (ICAM-1, VCAM-1, CCL5, CXCL9, CXCL10, MHC-II) (CP epithelial cells; [1]): no effect on trafficking molecules | expression of trafficking-related genes, escalating dosing of the cytokines (CP epithelial cells; cultured CP cells): None of the tested cytokines, other than IFN-γ, had any effect | ccl11 mRNA levels (CCL11 expression) (CP epithelial cells; IL-4 10 ng/ml, IFN-γ 100 ng/ml): expressed high levels of CCL11 | arginase-1 (Arg1) expression (CP epithelial cells; cultured CP epithelial cells, IL-4 10 ng/ml, 24 h): upregulated arginase-1; also recorded: dramatic effect on the upregulation of arginase-1

diphtheria toxin [DTX]
Foxp3+ T cells in the spleen, the CP and the CSF (Foxp3-DTR mice; DTX 8 ng/g i.p. per day for 4 days, DTR+ mice): depleted | mRNA of ICAM-1, CXCL9, CXCL10, CXCL11, MCP-1, MCSF, BDNF and IGF-1 in the CP (Foxp3-DTR mice; following Foxp3+ T cells depletion by DTX): significantly upregulated

MOG35-55 (MEVGWYRSPFSRVVHLYRNGK; emulsified in adjuvant) [emulsified in incomplete Freund's adjuvant containing 0.5 mg/ml M. tuberculosis]
ratio of Tregs to Th1 cells in blood (WT, mSOD and 5XFAD mice; 7 or 14 days following immunization, versus control group): lower | ratio of Tregs to Th1 cells in blood (WT, mSOD and 5XFAD mice; 28 days following immunization, relative to 7 or 14 days): increase | infiltrating T cells in the CSF (WT mice; 14 days post immunization, relative to naïve or OVA-immunized mice): increase of infiltrating T cells | expression of ICAM-1 by the CP epithelium (WT mice; mouse, in vivo): induced the expression of ICAM-1 | total leukocyte numbers, including T cells and CD4+ T cells, in the CSF (mSOD1 mice; 14 days post immunization): increase in total leukocyte numbers | expression of trafficking molecules (ICAM-1, CCL5, CXCL9, CXCL10) in the CP (mSOD1 mice; 14 days post immunization, compared to non-immunized mice): significant increase in the expression of trafficking molecules | CD4+ T cell numbers in the spinal cord parenchyma (mSOD1 mice; 28 days post immunization): remained elevated | local expression of IL-10 in the spinal cord (mSOD1 mice; 28 days post immunization): increased local expression of IL-10 | spatial distribution of infiltrating T cells (mSOD1 mice; 28 days post immunization, immunized mSOD1 mice (data not shown)): T cells were found in the gray matter of the spinal cord ventral horn | lifespan compared to PBS injected mice (mSOD1 mice; average survival age and Kaplan-Meier curves, logrank p=0.024): significantly longer lifespan | Foxp3+ Tregs in the CSF (mSOD1 mice; day 28 post immunization): significant elevation of Tregs | Foxp3+ Tregs in the spinal cord parenchyma (mSOD1 mice; day 28 post immunization): significant elevation of Tregs | mice still alive at the age of 154 days (mSOD1 mice; immunized mSOD1 mice): 90% | average survival (mSOD1 mice; immunized mSOD1 mice, n=10 per group): 159.5 ± 2.2 days | increased average survival (mSOD1 mice; immunized versus untreated mSOD1 mice): 15 days | CD4+ T cells in the spinal cord parenchyma (mSOD1 mice; mouse, in vivo): increased infiltration of CD4^+ T cells | expression of TGF-β1 in the spinal cord parenchyma (mSOD1 mice; mouse, in vivo): elevated

B1: IFN-γ: Th1-derived cytokine, purchased from PeproTech, added to cultured CP cells (protein, UniProt P01580 23-155, looked up)
Interferon gamma: HGTVIESLESLNNYFNSSGIDVEEKSLFLDIWRNWQKDGDMKILQSQIISFYLRLFEVLKDNQAISNNISVIESHLITTFFSNSKAKKDAFMSIAKFEVNNPQVQRQAFNELIRVVHQLLPESSLRKRKRSRC
ICAM-1 and VCAM-1 immunostaining on CP epithelial cells (cultured CP cells; 3 days after addition of IFN-γ (100 ng/ml)): elevated | IL-4 induced CCL11 immunoreactivity (cultured CP cells; co-incubation of IFN-γ with IL-4, following Brefeldin-A treatment (data not shown)): reversed this induction | expression of trafficking molecules (ICAM-1, VCAM-1, CCL5, CXCL10) mRNA (CP epithelial cells; CP epithelial cells from 70 day old WT and mSOD1 mice, IFN-γ 100 ng/ml, 24h): elevated the expression of trafficking molecules by both WT and mSOD1 CP cultures to a similar degree | expression of the chemokine CCL20 (CP epithelial cells; CP epithelial cells, IL-17 100 ng/ml, IFN-γ 100 ng/ml, 24 h): not | expression of trafficking molecules, IFN-γ combined with TNF-α (CP epithelial cells; IFN-γ 100 ng/ml combined with TNF-α 100 ng/ml, 24 hours, most of the tested genes): strong synergistic effect | effect of IL-4 on CCL11 production (CP epithelial cells; IFN-γ (100 ng/ml) added together with IL-4, young CP epithelial cells, 24 hours): reversed the effect of IL-4 on CCL11 production | gene expression levels of trafficking molecules (ICAM-1, VCAM-1, CCL5, CXCL9, CXCL10, MHC-II) (CP epithelial cells; [1]): induced the upregulation of a wide array of trafficking molecules | expression of TNF-R1 mRNA (CP epithelial cells; cultured CP cells, IFN-γ 100 ng/ml, 24 h): elevated the expression of TNF-R1 | expression of chemokines CCL2, Fractalkine (CX3CL1) and M-CSF (CP epithelial cells; cultured CP cells, IFN-γ 100 ng/ml, 24 hours): upregulated | expression of trafficking-related genes, escalating dosing of the cytokines (CP epithelial cells; cultured CP cells): activated the CP in a dose dependent manner | basal CCL11 expression (CP epithelial cells; cultured CP epithelial cells from old (22 months) mice, IFN-γ 100 ng/ml, 24 hours): decreased basal CCL11 expression | ccl11 mRNA levels (CCL11 expression) (CP epithelial cells; IL-4 10 ng/ml, IFN-γ 100 ng/ml): had no effect on CCL11 expression
